Test results as given in patent US6355799B1, “Substituted benzene compounds, process for their preparation, and herbicidal and defoliant compositions containing them” (ISK Americas Incorporated, priority 1997, dated 2002).

Tests used:
Assay type in all cases: in vivo
[1] = tested on: barnyardgrass (Echinochloa crus-galli, ECHCG); experiment: Pre-emerge test, greenhouse herbicide activity screening; settings: pre-emerge; for Pre-emerge Herbicidal Activity ECHCG (phytotoxicity rating, scale 0-100): rated 14 days after application, 0 = no damage, 100 = complete death; for phytotoxicity rating ECHCG: 14 days after application, rating scale 0-100
Procedure, shortened: (§1)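 Compounds in acetone were track-sprayed at 15–1000 g ai/ha: pre-emergence onto soil sown the previous day, then top-watered to incorporate and later bottom-watered; post-emergence onto 2–3 leaf plants with 0.25% v/v surfactant, bottom-watered only. Ratings on a 0–100 phytotoxicity scale were taken at day 14.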

[2] = tested on: green foxtail (Setaria viridis, SETVI); experiment: as above; settings: pre-emerge; for Pre-emerge Herbicidal Activity SETVI (phytotoxicity rating, scale 0-100): rated 14 days after application, 0 = no damage, 100 = complete death; for phytotoxicity rating SETVI: 14 days after application, rating scale 0-100
Procedure, shortened: as §1

[3] = tested on: sicklepod (Cassia obtusifolia, CASOB); experiment: as above; settings: pre-emerge; for Pre-emerge Herbicidal Activity CASOB (phytotoxicity rating, scale 0-100): rated 14 days after application, 0 = no damage, 100 = complete death; for phytotoxicity rating CASOB: 14 days after application, rating scale 0-100
Procedure, shortened: as §1

[4] = tested on: velvetleaf (Abutilon theophrasti, ABUTH); experiment: as above; settings: pre-emerge; for Pre-emerge Herbicidal Activity ABUTH (phytotoxicity rating, scale 0-100): rated 14 days after application, 0 = no damage, 100 = complete death; for phytotoxicity rating ABUTH: 14 days after application, rating scale 0-100
Procedure, shortened: as §1

[5] = tested on: large crabgrass (Digitaria sanguinalis, DIGSA); experiment: as above; settings: pre-emerge; for Pre-emerge Herbicidal Activity DIGSA (phytotoxicity rating, scale 0-100): rated 14 days after application, 0 = no damage, 100 = complete death; for phytotoxicity rating DIGSA: 14 days after application, rating scale 0-100
Procedure, shortened: as §1

[6] = tested on: ivyleaf morningglory (Ipomoea hederacea, IPOHE); experiment: as above; settings: pre-emerge; for Pre-emerge Herbicidal Activity IPOHE (phytotoxicity rating, scale 0-100): rated 14 days after application, 0 = no damage, 100 = complete death; for phytotoxicity rating IPOHE: 14 days after application, rating scale 0-100
Procedure, shortened: as §1

[7] = tested on: lambsquarters (Chenopodium album, CHEAL); experiment: as above; settings: pre-emerge; for Pre-emerge Herbicidal Activity CHEAL (phytotoxicity rating, scale 0-100): rated 14 days after application, 0 = no damage, 100 = complete death; for phytotoxicity rating CHEAL: 14 days after application, rating scale 0-100
Procedure, shortened: as §1

[8] = tested on: johnsongrass (Sorghum halepense, SORHA); experiment: as above; settings: pre-emerge; for Pre-emerge Herbicidal Activity SORHA (phytotoxicity rating, scale 0-100): rated 14 days after application, 0 = no damage, 100 = complete death; for phytotoxicity rating SORHA: 14 days after application, rating scale 0-100
Procedure, shortened: as §1

[9] = tested on: sicklepod (Cassia obtusifolia, CASOB); experiment: Post-emerge test, greenhouse herbicide activity screening; settings: Senna obtusifolia, post-emergence, 336 h, phytotoxicity rating 0-100 (0 no damage, 100 complete death), 14 days after application, read-out: Post-emerge Herbicidal Activity CASOB
Procedure, shortened: (§2)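 Herbicidal damage is scored 0 (none) to 100 (complete plant death) two weeks after a simulated field spray. Rates span 15–1000 g ai/ha, delivered in acetone at 187 l/ha. For post-emergence treatments, plants have 2–3 leaves and the spray carries 0.25% v/v non-ionic surfactant.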

[10] = tested on: large crabgrass (Digitaria sanguinalis, DIGSA); experiment: as above; settings: Digitaria sanguinalis, post-emergence, 336 h, phytotoxicity rating 0-100 (0 no damage, 100 complete death), 14 days after application, read-out: Post-emerge Herbicidal Activity DIGSA
Procedure, shortened: as §2

[11] = tested on: ivyleaf morningglory (Ipomoea hederacea, IPOHE); experiment: as above; settings: Ipomoea, post-emergence, 336 h, phytotoxicity rating 0-100 (0 no damage, 100 complete death), 14 days after application, read-out: Post-emerge Herbicidal Activity IPOHE
Procedure, shortened: as §2

[12] = tested on: johnsongrass (Sorghum halepense, SORHA); experiment: as above; settings: Sorghum halepense, post-emergence, 336 h, phytotoxicity rating 0-100 (0 no damage, 100 complete death), 14 days after application, read-out: Post-emerge Herbicidal Activity SORHA
Procedure, shortened: as §2

[13] = tested on: redroot pigweed (Amaranthus retroflexus, AMARE); experiment: Pre-emerge test, greenhouse herbicide activity screening; settings: pre-emerge; for Pre-emerge Herbicidal Activity AMARE (phytotoxicity rating, scale 0-100): rated 14 days after application, 0 = no damage, 100 = complete death; for phytotoxicity rating AMARE: 14 days after application, rating scale 0-100
Procedure, shortened: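 Compounds in acetone were track-sprayed at 187 l/ha, 15–1000 g ai/ha, onto sandy loam pots. Pre-emerge seeds were sown one day before spraying, with surface watering afterwards. Post-emerge plants were at the 2–3 leaf stage and sprayed with 0.25% v/v non-ionic surfactant. Injury was rated 0–100 at 14 days.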

COc1c(Cl)cc(F)c(-n2c(=O)cc(C(F)(F)F)n(C)c2=O)c1N [Compound 1-4, 3-(2-amino-4-chloro-6-fluoro-3-methoxyphenyl)-1-methyl-6-trifluoromethyl-2,4(1H, 3H)-pyrimidinedione]
Pre-emerge Herbicidal Activity ECHCG (phytotoxicity rating, scale 0-100) ([1]; 63 g ai/ha): 100 | Pre-emerge Herbicidal Activity ECHCG (phytotoxicity rating, scale 0-100) ([1]; 250 g ai/ha): 100 | phytotoxicity rating ECHCG ([1]; 3.9 g ai/ha): 0 | phytotoxicity rating ECHCG ([1]; 7.8 g ai/ha): 0 | phytotoxicity rating ECHCG ([1]; 15.6 g ai/ha): 0 | phytotoxicity rating ECHCG ([1]; 31.3 g ai/ha): 10 | phytotoxicity rating ECHCG ([1]; 62.5 g ai/ha): 30 | phytotoxicity rating ECHCG ([1]; 125 g ai/ha): 95 | phytotoxicity rating ECHCG ([1]; 250 g ai/ha): 100 | Pre-emerge Herbicidal Activity SETVI (phytotoxicity rating, scale 0-100) ([2]; 63 g ai/ha): 100 | Pre-emerge Herbicidal Activity SETVI (phytotoxicity rating, scale 0-100) ([2]; 250 g ai/ha): 100 | phytotoxicity rating SETVI ([2]; 3.9 g ai/ha): 0 | phytotoxicity rating SETVI ([2]; 7.8 g ai/ha): 60 | phytotoxicity rating SETVI ([2]; 15.6 g ai/ha): 80 | phytotoxicity rating SETVI ([2]; 31.3 g ai/ha): 80 | phytotoxicity rating SETVI ([2]; 62.5 g ai/ha): 100 | phytotoxicity rating SETVI ([2]; 125 g ai/ha): 100 | phytotoxicity rating SETVI ([2]; 250 g ai/ha): 100 | Pre-emerge Herbicidal Activity CASOB (phytotoxicity rating, scale 0-100) ([3]; 63 g ai/ha): 90 | Pre-emerge Herbicidal Activity CASOB (phytotoxicity rating, scale 0-100) ([3]; 250 g ai/ha): 100 | phytotoxicity rating CASOB ([3]; 3.9 g ai/ha): 0 | phytotoxicity rating CASOB ([3]; 7.8 g ai/ha): 30 | phytotoxicity rating CASOB ([3]; 15.6 g ai/ha): 100 | phytotoxicity rating CASOB ([3]; 31.3 g ai/ha): 0 | phytotoxicity rating CASOB ([3]; 62.5 g ai/ha): 80 | phytotoxicity rating CASOB ([3]; 125 g ai/ha): 95 | phytotoxicity rating CASOB ([3]; 250 g ai/ha): 100 | Pre-emerge Herbicidal Activity ABUTH (phytotoxicity rating, scale 0-100) ([4]; 63 g ai/ha): 100 | Pre-emerge Herbicidal Activity ABUTH (phytotoxicity rating, scale 0-100) ([4]; 250 g ai/ha): 100 | phytotoxicity rating ABUTH ([4]; 3.9 g ai/ha): 95 | phytotoxicity rating ABUTH ([4]; 7.8 g ai/ha): 100 | phytotoxicity rating ABUTH ([4]; 15.6 g ai/ha): 100 | phytotoxicity rating ABUTH ([4]; 31.3 g ai/ha): 100 | phytotoxicity rating ABUTH ([4]; 62.5 g ai/ha): 100 | phytotoxicity rating ABUTH ([4]; 125 g ai/ha): 100 | phytotoxicity rating ABUTH ([4]; 250 g ai/ha): 100 | Pre-emerge Herbicidal Activity DIGSA (phytotoxicity rating, scale 0-100) ([5]; 63 g ai/ha): 100 | Pre-emerge Herbicidal Activity DIGSA (phytotoxicity rating, scale 0-100) ([5]; 250 g ai/ha): 100 | phytotoxicity rating DIGSA ([5]; 3.9 g ai/ha): 0 | phytotoxicity rating DIGSA ([5]; 7.8 g ai/ha): 30 | phytotoxicity rating DIGSA ([5]; 15.6 g ai/ha): 30 | phytotoxicity rating DIGSA ([5]; 31.3 g ai/ha): 30 | phytotoxicity rating DIGSA ([5]; 62.5 g ai/ha): 95 | phytotoxicity rating DIGSA ([5]; 125 g ai/ha): 100 | phytotoxicity rating DIGSA ([5]; 250 g ai/ha): 100 | Pre-emerge Herbicidal Activity IPOHE (phytotoxicity rating, scale 0-100) ([6]; 63 g ai/ha): 100 | Pre-emerge Herbicidal Activity IPOHE (phytotoxicity rating, scale 0-100) ([6]; 250 g ai/ha): 100 | phytotoxicity rating IPOHE ([6]; 3.9 g ai/ha): 0 | phytotoxicity rating IPOHE ([6]; 7.8 g ai/ha): 0 | phytotoxicity rating IPOHE ([6]; 15.6 g ai/ha): 0 | phytotoxicity rating IPOHE ([6]; 31.3 g ai/ha): 50 | phytotoxicity rating IPOHE ([6]; 62.5 g ai/ha): 90 | phytotoxicity rating IPOHE ([6]; 125 g ai/ha): 100 | phytotoxicity rating IPOHE ([6]; 250 g ai/ha): 100 | Pre-emerge Herbicidal Activity CHEAL (phytotoxicity rating, scale 0-100) ([7]; 63 g ai/ha): 100 | Pre-emerge Herbicidal Activity CHEAL (phytotoxicity rating, scale 0-100) ([7]; 250 g ai/ha): 100 | phytotoxicity rating CHEAL ([7]; 3.9 g ai/ha): 30 | phytotoxicity rating CHEAL ([7]; 7.8 g ai/ha): 60 | phytotoxicity rating CHEAL ([7]; 15.6 g ai/ha): 100 | phytotoxicity rating CHEAL ([7]; 31.3 g ai/ha): 100 | phytotoxicity rating CHEAL ([7]; 62.5 g ai/ha): 100 | phytotoxicity rating CHEAL ([7]; 125 g ai/ha): 100 | phytotoxicity rating CHEAL ([7]; 250 g ai/ha): 100 | Pre-emerge Herbicidal Activity SORHA (phytotoxicity rating, scale 0-100) ([8]; 63 g ai/ha): 85 | Pre-emerge Herbicidal Activity SORHA (phytotoxicity rating, scale 0-100) ([8]; 250 g ai/ha): 100 | phytotoxicity rating SORHA ([8]; 3.9 g ai/ha): 0 | phytotoxicity rating SORHA ([8]; 7.8 g ai/ha): 0 | phytotoxicity rating SORHA ([8]; 15.6 g ai/ha): 0 | phytotoxicity rating SORHA ([8]; 31.3 g ai/ha): 30 | phytotoxicity rating SORHA ([8]; 62.5 g ai/ha): 40 | phytotoxicity rating SORHA ([8]; 125 g ai/ha): 95 | phytotoxicity rating SORHA ([8]; 250 g ai/ha): 100 | pest or weed control at 63 g/ha ([9]; 63 g ai/ha): 60% | pest or weed control at 250 g/ha ([9]; 250 g ai/ha): 100% | pest or weed control at 63 g/ha ([10]; 63 g ai/ha): 0% | pest or weed control at 250 g/ha ([10]; 250 g ai/ha): 50% | pest or weed control at 63 g/ha ([11]; 63 g ai/ha): 100% | pest or weed control at 250 g/ha ([11]; 250 g ai/ha): 100% | pest or weed control at 63 g/ha ([12]; 63 g ai/ha): 0% | pest or weed control at 250 g/ha ([12]; 250 g ai/ha): 70% | Pre-emerge Herbicidal Activity AMARE (phytotoxicity rating, scale 0-100) ([13]; 63 g ai/ha): 100 | Pre-emerge Herbicidal Activity AMARE (phytotoxicity rating, scale 0-100) ([13]; 250 g ai/ha): 100 | phytotoxicity rating AMARE ([13]; 3.9 g ai/ha): 30 | phytotoxicity rating AMARE ([13]; 7.8 g ai/ha): 100 | phytotoxicity rating AMARE ([13]; 15.6 g ai/ha): 90 | phytotoxicity rating AMARE ([13]; 31.3 g ai/ha): 100 | phytotoxicity rating AMARE ([13]; 62.5 g ai/ha): 100 | phytotoxicity rating AMARE ([13]; 125 g ai/ha): 100 | phytotoxicity rating AMARE ([13]; 250 g ai/ha): 100
